Measurements: article PMC12196347, “Evaluating Triazole-Substituted Pyrrolopyrimidines as CSF1R Inhibitors” (Molecules, 2025)
Values after ≈ are worked out from the molar mass of the structure shown.

How the values were obtained:
[1] = Mouse plasma protein binding; format: in vitro ADME; conditions: fraction bound, read-out: PPB (converted)
[2] = Kinetic solubility, spectrophotometric; format: physicochemical; conditions: aqueous buffer, kinetic from dmso stock, spectrophotometrically at pH 7.4 in HEPES buffer
[3] = Human liver microsome intrinsic clearance, Phase I; format: in vitro ADME; conditions: in vitro intrinsic clearance
[4] = Mouse liver microsome intrinsic clearance, Phase I; format: in vitro ADME; conditions: in vitro intrinsic clearance
[5] = target: T1, cKIT kinase (Homo sapiens, UniProt P10721); test: KIT inhibition (KD), TR-FRET tracer displacement; format: binding; conditions: kinase tracer 236, anti-GST antibody Eu-conjugate, read-out: KIT enz. KD
T1 construct: purchased Carna Biosciences
T1 sequence (P10721 26-976): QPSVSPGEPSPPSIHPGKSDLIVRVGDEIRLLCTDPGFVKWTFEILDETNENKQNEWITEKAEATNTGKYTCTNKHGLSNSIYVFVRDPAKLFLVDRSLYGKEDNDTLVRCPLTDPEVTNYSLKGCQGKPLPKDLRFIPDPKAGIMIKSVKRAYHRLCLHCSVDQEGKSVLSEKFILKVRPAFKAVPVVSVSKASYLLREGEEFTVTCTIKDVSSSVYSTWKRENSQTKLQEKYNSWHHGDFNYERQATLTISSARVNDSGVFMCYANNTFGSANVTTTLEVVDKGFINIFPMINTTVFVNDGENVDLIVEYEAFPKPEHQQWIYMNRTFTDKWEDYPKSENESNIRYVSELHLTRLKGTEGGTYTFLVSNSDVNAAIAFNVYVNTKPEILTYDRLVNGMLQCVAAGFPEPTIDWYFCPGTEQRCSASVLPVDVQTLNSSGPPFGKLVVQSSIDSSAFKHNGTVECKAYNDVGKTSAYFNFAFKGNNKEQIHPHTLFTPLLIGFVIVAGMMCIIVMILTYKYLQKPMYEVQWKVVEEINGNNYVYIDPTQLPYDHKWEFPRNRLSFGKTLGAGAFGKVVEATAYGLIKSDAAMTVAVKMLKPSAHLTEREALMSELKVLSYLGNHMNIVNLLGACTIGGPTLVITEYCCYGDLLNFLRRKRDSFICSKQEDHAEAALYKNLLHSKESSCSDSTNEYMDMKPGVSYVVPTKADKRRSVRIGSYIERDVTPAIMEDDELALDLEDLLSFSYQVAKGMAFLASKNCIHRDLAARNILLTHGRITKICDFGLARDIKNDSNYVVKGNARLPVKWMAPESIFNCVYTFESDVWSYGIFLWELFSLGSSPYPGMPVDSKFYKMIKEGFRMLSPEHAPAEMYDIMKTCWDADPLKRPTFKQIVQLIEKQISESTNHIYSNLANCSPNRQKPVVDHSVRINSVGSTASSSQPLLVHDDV

[6] = target: CSF1R (Homo sapiens, UniProt P07333); test: CSF1R enzymatic IC50, Z-LYTE assay platform; format: biochemical; conditions: for Hill coefficient: Z-LYTE CSF1R IC50 curve; for IC50: Z-LYTE, 10-point titrations in duplicates, ATP equal to KM ca. 10 µM, read-out: CSF1R enz. IC50
Target sequence in this assay (P07333 20-972): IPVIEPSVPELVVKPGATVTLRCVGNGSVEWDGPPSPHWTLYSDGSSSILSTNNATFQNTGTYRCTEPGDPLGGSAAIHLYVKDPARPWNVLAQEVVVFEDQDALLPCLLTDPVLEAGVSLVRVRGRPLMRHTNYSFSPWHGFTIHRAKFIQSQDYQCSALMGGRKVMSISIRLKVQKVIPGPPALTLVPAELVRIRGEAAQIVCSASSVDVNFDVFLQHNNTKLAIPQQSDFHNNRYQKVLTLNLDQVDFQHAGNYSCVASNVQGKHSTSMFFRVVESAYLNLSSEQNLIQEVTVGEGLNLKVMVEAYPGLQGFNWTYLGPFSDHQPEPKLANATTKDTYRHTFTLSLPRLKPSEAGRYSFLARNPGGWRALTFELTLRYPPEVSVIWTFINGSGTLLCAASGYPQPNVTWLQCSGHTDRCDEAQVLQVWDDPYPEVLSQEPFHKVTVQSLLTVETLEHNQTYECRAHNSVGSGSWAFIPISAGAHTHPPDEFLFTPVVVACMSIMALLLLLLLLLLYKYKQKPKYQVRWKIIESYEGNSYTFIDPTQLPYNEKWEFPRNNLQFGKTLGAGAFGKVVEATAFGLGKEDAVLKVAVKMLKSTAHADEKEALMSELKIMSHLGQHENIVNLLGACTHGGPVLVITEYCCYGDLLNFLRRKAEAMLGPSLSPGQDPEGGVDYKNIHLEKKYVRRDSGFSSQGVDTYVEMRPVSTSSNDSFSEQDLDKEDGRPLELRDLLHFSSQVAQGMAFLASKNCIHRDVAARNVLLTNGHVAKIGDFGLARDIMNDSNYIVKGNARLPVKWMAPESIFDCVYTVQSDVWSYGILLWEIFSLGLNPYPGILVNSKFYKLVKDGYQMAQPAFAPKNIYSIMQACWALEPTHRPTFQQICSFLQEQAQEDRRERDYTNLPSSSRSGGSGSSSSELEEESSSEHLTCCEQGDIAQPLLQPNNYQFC

[7] = system: IL-3 dependent Ba/F3 cell line (CSF1R independent); test: Control assay for cellular toxicity, Ba/F3 cells dependent on IL-3; format: cell-based; conditions: Mus musculus, BaF3; Ba/F3 cells dependent on IL-3, control for cellular toxicity
[8] = MDCK permeability assay; format: in vitro ADME, canine; conditions: dog, MDCK cell monolayer; for Papp A→B: A-B direction; for Papp B→A: B-A direction; for efflux ratio: read-out: Ratio Papp B > A/Papp A > B
[9] = system: CSF1R Ba/F3 cells; test: Cell viability assay, Ba/F3 cells engineered to be dependent on CSF1R; format: cell-based; conditions: duplicate measurements
[10] = system: KIT-positive cell line GIST-T1; test: GIST-T1 CellTiter-Glo cell viability assay; format: cell-based; conditions: Homo sapiens, GISTT1; cellular proliferation, GIST-T1, 72 h
[11] = target: T2, CSF1R (Homo sapiens, UniProt P07333); test: CSF1R enzymatic inhibition, TR-FRET-based LANCE Ultra assay; format: biochemical; conditions: single 8-point titrations, ATP concentration 25 µM, read-out: Enz. IC50
T2 sequence (P07333 539-972 limits assumed): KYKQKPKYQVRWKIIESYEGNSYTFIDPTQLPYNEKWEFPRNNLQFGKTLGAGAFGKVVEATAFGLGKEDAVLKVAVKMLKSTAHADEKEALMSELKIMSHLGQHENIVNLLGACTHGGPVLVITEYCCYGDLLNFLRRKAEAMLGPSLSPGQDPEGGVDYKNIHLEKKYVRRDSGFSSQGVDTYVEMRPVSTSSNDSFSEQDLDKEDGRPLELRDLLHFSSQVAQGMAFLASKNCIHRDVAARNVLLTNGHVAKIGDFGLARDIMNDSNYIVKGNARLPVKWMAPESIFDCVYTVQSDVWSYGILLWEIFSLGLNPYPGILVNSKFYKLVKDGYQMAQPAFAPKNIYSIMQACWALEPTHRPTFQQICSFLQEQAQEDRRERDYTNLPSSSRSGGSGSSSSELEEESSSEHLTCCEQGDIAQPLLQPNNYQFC

[12] = Caco-2 permeability assay; format: in vitro ADME; conditions: human; Caco-2 cell assay
[13] = Mus musculus, BaF3, Ba/F3 cells dependent on CSF1R

Structure (SMILES)	fraction unbound [1]	solubility kinetic [2] [µM]	HLM [3] [µL/min/mg]	MLM [4] [µL/min/mg]	Kd [5] [nM]	Hill coefficient [6]	IC50 [6] [nM]	Papp A→B [8] [×10⁻⁶ cm/s]	Papp B→A [8] [×10⁻⁶ cm/s]	efflux ratio [8]	IC50 ([9]; Ba/F3 cells dependent on CSF1R) [nM]	IC50 [9, 13] [nM]	IC50 [11] [nM]	Papp A→B [12] [×10⁻⁶ cm/s]	Papp B→A [12] [×10⁻⁶ cm/s]	IC50 [7] [nM]	IC50 [10] [nM]
Cc1ccc(Cn2cc(-c3cc4c(N(C)CC5CCOCC5)ncnc4[nH]3)nn2)cc1 [Compound 25b, N-Methyl-6-(1-(4-methylbenzyl)-1H-1,2,3-triazol-4-yl)-N-((tetrahydro-2H-pyran-4-yl)methyl)-7H-pyrrolo[2,3-d]pyrimidin-4-amine]	0.025	10.6 (≈ 4.43 µg/mL)	62.4	1980	> 100	0.981	1.3	10	25.4	2.6	500	1000	< 1	–	–	> 10000	> 3000
COc1ccc(-n2cc(-c3cc4c(N(C)CC5CCOCC5)ncnc4[nH]3)nn2)cc1 [Compound 21b, 6-(1-(4-Methoxyphenyl)-1H-1,2,3-triazol-4-yl)-N-methyl-N-((tetrahydro-2H-pyran-4-yl)methyl)-7H-pyrrolo[2,3-d]pyrimidin-4-amine]	0.24	7.3 (≈ 3.06 µg/mL)	74.5	288	> 1000	0.913	1.2 ± 0.3	10.7	13.6	1.3	–	600 ± 200	3	–	–	> 10000	> 30000
FC(F)(F)c1ccc(CNc2ccc(Cc3c[nH]c4ncc(Cl)cc34)cn2)cn1 [PLX-3397, pexidartinib, reference compound]	< 0.01	–	–	–	–	1.18	–	–	–	–	–	60 ± 100	–	–	–	> 10000	30
Cc1ccc(-n2cc(-c3cc4c(N(C)Cc5cccc(C)c5)ncnc4[nH]3)nn2)cc1 [Compound 20a, N-Methyl-N-(3-methylbenzyl)-6-(1-(p-tolyl)-1H-1,2,3-triazol-4-yl)-7H-pyrrolo[2,3-d]pyrimidin-4-amine]	–	3 (≈ 1.23 µg/mL)	–	–	–	–	–	–	–	–	–	> 10000	28.2	–	–	> 10000	–

More lines, main results first:

fraction unbound [1]	solubility kinetic [2] [µM]	HLM [3] [µL/min/mg]	MLM [4] [µL/min/mg]	Kd [5] [nM]	Hill coefficient [6]	IC50 [6] [nM]	Papp A→B [8] [×10⁻⁶ cm/s]	Papp B→A [8] [×10⁻⁶ cm/s]	efflux ratio [8]	IC50 ([9]; Ba/F3 cells dependent on CSF1R) [nM]	IC50 [9, 13] [nM]	IC50 [11] [nM]	Papp A→B [12] [×10⁻⁶ cm/s]	Papp B→A [12] [×10⁻⁶ cm/s]	Structure (SMILES)	IC50 [7] [nM]	IC50 [10] [nM]
0.236	–	–	–	–	–	–	–	–	–	–	–	–	–	–	CN(CC1CCOCC1)c1ncnc2[nH]c(-c3ccc(N)cc3)cc12 [Structure IV, reference compound]	–	–
< 0.01	43 (≈ 17.4 µg/mL)	–	–	–	–	–	–	–	–	–	1700 ± 100	1.8	–	–	CN(CC1CCOCC1)c1ncnc2[nH]c(-c3cn(Cc4cccnc4)nn3)cc12 [Compound 27b, N-Methyl-6-(1-(pyridin-3-ylmethyl)-1H-1,2,3-triazol-4-yl)-N-((tetrahydro-2H-pyran-4-yl)methyl)-7H-pyrrolo[2,3-d]pyrimidin-4-amine]	> 10000	–
–	–	–	–	–	–	–	–	–	–	–	–	–	0.69	0.19	Cc1cccc(CN(C)c2ncnc3[nH]c(-c4ccc(CO)cc4)cc23)c1 [Structure III]	–	–
